Reference: patent US20260207602A1, “EGFR INHIBITORS” (Blueprint Medicines Corporation, priority 2022, published 2026)
Like-named read-outs stand apart in the source and are kept apart here.

Columns and labels:
EGFR (d746-750) = molecular target: T1, EGFR (d746-750) (Homo sapiens, UniProt P00533, DEL746-750); test: Biochemical EGFR inhibition assay (Caliper mobility shift), EGFR (d746-750); conditions: read-out: Enz EGFR Exon 19-del IC50
T1 construct: purchased SignalChem E10-122JG
Method in brief: (§1)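 Peptide phosphorylation by the mutant enzyme is followed at 25 °C with either 1.0 mM ATP or ATP at Km, in HEPES pH 7.5 containing 0.015% Brij-35 and 1.0% DMSO. After 10–20% substrate turnover, 35 mM EDTA ends the reaction and mobility shift quantifies product.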

[1] = molecular target: intracellular phosphorylation of EGFR (Tyr1068) in PC-9 cells (Homo sapiens, UniProt P00533, DEL746-750); test: PC-9 pEGFR AlphaLISA assay; type: cell-based; conditions: 4 hours incubation, read-out: Phos EGFR PC9 IC50
Chain of intracellular phosphorylation of EGFR (Tyr1068) in PC-9 cells (P00533 with tags, fused parts or gaps DEL746-750): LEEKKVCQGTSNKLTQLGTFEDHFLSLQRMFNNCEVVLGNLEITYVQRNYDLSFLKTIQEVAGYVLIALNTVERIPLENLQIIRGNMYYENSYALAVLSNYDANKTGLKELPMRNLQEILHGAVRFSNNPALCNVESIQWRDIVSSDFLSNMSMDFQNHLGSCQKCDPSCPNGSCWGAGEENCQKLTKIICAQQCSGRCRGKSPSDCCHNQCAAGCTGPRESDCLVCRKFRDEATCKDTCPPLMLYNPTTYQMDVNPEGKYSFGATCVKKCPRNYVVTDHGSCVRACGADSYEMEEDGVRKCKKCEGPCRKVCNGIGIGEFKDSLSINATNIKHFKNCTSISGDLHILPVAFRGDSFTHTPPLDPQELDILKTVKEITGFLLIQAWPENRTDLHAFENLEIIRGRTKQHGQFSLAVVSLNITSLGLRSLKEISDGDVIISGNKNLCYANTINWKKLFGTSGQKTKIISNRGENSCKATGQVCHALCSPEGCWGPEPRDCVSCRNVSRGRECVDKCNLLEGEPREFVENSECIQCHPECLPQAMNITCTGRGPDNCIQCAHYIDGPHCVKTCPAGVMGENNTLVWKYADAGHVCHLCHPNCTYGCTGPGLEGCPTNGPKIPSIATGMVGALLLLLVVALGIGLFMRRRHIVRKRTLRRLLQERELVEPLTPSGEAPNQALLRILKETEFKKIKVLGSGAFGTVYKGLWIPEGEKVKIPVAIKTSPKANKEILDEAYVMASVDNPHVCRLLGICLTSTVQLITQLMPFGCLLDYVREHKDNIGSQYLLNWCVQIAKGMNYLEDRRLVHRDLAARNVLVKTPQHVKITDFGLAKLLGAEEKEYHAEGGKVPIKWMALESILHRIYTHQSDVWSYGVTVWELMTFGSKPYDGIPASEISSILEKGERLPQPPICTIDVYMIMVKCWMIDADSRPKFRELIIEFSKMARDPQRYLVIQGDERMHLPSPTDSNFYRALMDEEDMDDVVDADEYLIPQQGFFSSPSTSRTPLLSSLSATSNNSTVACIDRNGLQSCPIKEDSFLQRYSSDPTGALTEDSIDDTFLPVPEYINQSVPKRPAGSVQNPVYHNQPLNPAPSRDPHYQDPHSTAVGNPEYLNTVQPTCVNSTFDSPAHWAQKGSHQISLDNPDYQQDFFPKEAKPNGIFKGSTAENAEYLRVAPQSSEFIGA
Method in brief: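 PC-9 cells (EGFR del746-750) in phenol-free DMEM/10% FBS, adhered overnight, then exposed to 10-point 4-fold compound dilutions for 4 h at 37 °C. Lysates assayed for pEGFR Tyr1068 by AlphaLISA SureFire Ultra; IC50 from percent pEGFR inhibition vs log concentration.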

EGFR L858R = molecular target: T2, EGFR L858R (Homo sapiens, UniProt P00533, L858R); test: Biochemical EGFR inhibition assay (Caliper mobility shift), EGFR L858R; conditions: read-out: Enz EGFR L858R IC50
T2 construct: purchased SignalChem E10-122BG
T2 sequence (P00533 25-1210 L858R): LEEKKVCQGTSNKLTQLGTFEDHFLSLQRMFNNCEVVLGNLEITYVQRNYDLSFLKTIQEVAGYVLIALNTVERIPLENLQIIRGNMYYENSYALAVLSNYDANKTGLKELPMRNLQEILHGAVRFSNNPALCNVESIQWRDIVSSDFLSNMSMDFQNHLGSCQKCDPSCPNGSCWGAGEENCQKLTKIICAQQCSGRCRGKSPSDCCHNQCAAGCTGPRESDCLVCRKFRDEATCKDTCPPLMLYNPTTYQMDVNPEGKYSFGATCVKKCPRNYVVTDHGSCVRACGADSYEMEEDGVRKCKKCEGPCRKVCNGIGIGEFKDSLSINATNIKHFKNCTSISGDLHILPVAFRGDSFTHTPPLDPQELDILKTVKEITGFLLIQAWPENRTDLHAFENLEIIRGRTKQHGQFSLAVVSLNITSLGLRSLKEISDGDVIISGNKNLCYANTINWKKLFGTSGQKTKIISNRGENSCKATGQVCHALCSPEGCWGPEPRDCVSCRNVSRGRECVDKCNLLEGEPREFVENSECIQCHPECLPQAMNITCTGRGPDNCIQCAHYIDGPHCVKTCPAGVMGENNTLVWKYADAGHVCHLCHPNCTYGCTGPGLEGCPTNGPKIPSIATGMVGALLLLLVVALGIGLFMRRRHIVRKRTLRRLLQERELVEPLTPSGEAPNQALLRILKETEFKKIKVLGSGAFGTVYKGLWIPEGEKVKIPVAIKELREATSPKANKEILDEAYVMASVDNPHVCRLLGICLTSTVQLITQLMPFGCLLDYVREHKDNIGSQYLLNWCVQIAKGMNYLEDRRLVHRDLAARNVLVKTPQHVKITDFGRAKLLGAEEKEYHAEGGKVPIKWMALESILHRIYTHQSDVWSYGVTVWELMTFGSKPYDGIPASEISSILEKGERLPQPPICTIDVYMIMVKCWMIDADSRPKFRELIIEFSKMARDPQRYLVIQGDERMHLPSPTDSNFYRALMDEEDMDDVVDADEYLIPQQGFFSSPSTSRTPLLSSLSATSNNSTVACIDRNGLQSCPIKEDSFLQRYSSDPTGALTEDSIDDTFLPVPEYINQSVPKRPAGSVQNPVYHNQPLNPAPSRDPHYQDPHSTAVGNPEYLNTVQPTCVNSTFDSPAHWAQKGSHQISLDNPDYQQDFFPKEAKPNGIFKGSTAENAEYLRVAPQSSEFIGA
Method in brief: as §1

[2] = biochemical Caliper mobility shift assay, EGFR Exon 19-del enzyme
[3] = biochemical Caliper mobility shift assay, EGFR L858R enzyme

T1 sequence (P00533 with tags, fused parts or gaps DEL746-750 limits assumed): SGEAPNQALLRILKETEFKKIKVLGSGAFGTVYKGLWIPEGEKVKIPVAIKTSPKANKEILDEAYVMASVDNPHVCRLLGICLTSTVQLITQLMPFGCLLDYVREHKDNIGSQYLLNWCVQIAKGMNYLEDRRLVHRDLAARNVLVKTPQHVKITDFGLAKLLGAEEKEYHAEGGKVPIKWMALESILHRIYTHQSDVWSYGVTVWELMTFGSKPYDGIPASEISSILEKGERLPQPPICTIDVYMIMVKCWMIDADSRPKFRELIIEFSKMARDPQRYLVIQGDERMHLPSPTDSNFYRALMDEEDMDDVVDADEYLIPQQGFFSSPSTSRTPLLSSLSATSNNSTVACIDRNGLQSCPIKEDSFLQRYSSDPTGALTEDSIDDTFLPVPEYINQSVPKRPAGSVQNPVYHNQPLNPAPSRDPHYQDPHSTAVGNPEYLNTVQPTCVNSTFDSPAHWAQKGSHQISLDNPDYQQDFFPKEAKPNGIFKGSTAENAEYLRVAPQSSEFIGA

IC50 (EGFR (d746-750); [2]) [µM]	IC50 [1] [µM]	IC50 (EGFR L858R; [3]) [µM]	SMILES	IC50 (EGFR (d746-750)) [µM]	IC50 (EGFR L858R) [µM]
≤ 0.01	> 0.0501	0.0101 to 0.05	Cn1cc(-c2cc(O[C@@H]3CNC[C@@H]3F)c3c(Nc4ccc5ncsc5c4)ncnc3c2)cn1 (racemic) [Example 379, N-(5-(((3R,4S)-4-fluoropyrrolidin-3-yl)oxy)-7-(1-methyl-1H-pyrazol-4-yl)quinazolin-4-yl)benzo[d]thiazol-6-amine]	–	–
≤ 0.01	0.0101 to 0.05	≤ 0.01	Cn1cc(-c2cc(O[C@@H]3CCOC[C@@H]3F)c3c(Nc4ccc5ncsc5c4)ncnc3c2)cn1 (single isomer, unassigned) [Example 43]	–	–
≤ 0.01	≤ 0.01	≤ 0.01	C[C@H](Oc1cc(N2CCN(C)C2=O)cc2ncnc(Nc3ccc4ncsc4c3)c12)C1COC1 (single isomer, unassigned) [Example 157]	–	–
≤ 0.01	≤ 0.01	≤ 0.01	COc1nn(C)cc1-c1cc(O[C@H](C)C2COC2)c2c(Nc3ccc4ncsc4c3)ncnc2c1 (single isomer, unassigned) [Example 170]	–	–
≤ 0.01	≤ 0.01	≤ 0.01	Cn1cc(-c2cc(O[C@H]3CCOC[C@@H]3F)c3c(Nc4ccc5ncsc5c4)ncnc3c2)cn1 (single isomer, unassigned) [Example 46]	–	–
≤ 0.01	≤ 0.01	≤ 0.01	CN1CC[C@@H](Oc2cc(-c3cnn(C)c3)cc3ncnc(Nc4ccc5ncsc5c4)c23)[C@@H](F)C1 (racemic) [Example 339, cis-N-(5-(((3S,4R)-3-fluoro-1-methylpiperidin-4-yl)oxy)-7-(1-methyl-1H-pyrazol-4-yl)quinazolin-4-yl)benzo[d]thiazol-6-amine]	–	–
≤ 0.01	0.0101 to 0.05	0.0101 to 0.05	CN(C)CC1(COc2cc(-c3cnn(C)c3)cc3ncnc(Nc4ccc5ncsc5c4)c23)COC1 [Example 188, N-(5-((3-((dimethylamino)methyl)oxetan-3-yl)methoxy)-7-(1-methyl-1H-pyrazol-4-yl)quinazolin-4-yl)benzo[d]thiazol-6-amine]	–	–
≤ 0.01	0.0101 to 0.05	≤ 0.01	Cn1cc(-c2cc(OC(CO)CO)c3c(Nc4ccc5ncsc5c4)ncnc3c2)cn1 [Example 29, 2-((4-(benzo[d]thiazol-6-ylamino)-7-(1-methyl-1H-pyrazol-4-yl)quinazolin-5-yl)oxy)propane-1,3-diol]	–	–
≤ 0.01	0.0101 to 0.05	0.0101 to 0.05	Cn1cc(-c2cc(OC(C)(C)C(=O)N3CCOCC3)c3c(Nc4ccc5ncsc5c4)ncnc3c2)cn1 [Example 286, 2-((4-(benzo[d]thiazol-6-ylamino)-7-(1-methyl-1H-pyrazol-4-yl)quinazolin-5-yl)oxy)-2-methyl-1-morpholinopropan-1-one]	–	–
≤ 0.01	≤ 0.01	≤ 0.01	C[C@@H](Oc1cc(N2CC3CC(C2)O3)cc2ncnc(Nc3ccc4ncsc4c3)c12)C1COC1 [Example 129, N-(7-(6-oxa-3-azabicyclo[3.1.1]heptan-3-yl)-5-((R)-1-(oxetan-3-yl)ethoxy)quinazolin-4-yl)benzo[d]thiazol-6-amine]	–	–
≤ 0.01	≤ 0.01	≤ 0.01	Cc1cn(-c2cc(O[C@H](C)C3COC3)c3c(Nc4ccc5ncsc5c4)ncnc3c2)c(=O)n1C [Example 202, (R)-1-(4-(benzo[d]thiazol-6-ylamino)-5-(1-(oxetan-3-yl)ethoxy)quinazolin-7-yl)-3,4-dimethyl-1,3-dihydro-2H-imidazol-2-one]	–	–
≤ 0.01	0.0101 to 0.05	0.0101 to 0.05	C[C@H]1[C@H](Oc2cc(-c3cnn(C)c3)cc3ncnc(Nc4ccc5ncsc5c4)c23)CN1C (single isomer, unassigned) [Example 321]	–	–
≤ 0.01	≤ 0.01	≤ 0.01	CN1CCC2(COC2)[C@H](Oc2cc(-c3cnn(C)c3)cc3ncnc(Nc4ccc5ncsc5c4)c23)C1 (single isomer, unassigned) [Example 353]	–	–
≤ 0.01	0.0101 to 0.05	≤ 0.01	COc1nn(C)cc1-c1cc(OC2CCN(C)CC2)c2c(Nc3ccc4ncsc4c3F)ncnc2c1 [Example 320, 7-fluoro-N-(7-(3-methoxy-1-methyl-1H-pyrazol-4-yl)-5-((1-methylpiperidin-4-yl)oxy)quinazolin-4-yl)benzo[d]thiazol-6-amine]	–	–
≤ 0.01	≤ 0.01	≤ 0.01	C[C@@H](Oc1cc(-c2cnn(C)c2)cc2ncnc(Nc3ccc4ncsc4c3)c12)C1CC1 [Example 65, (R)-N-(5-(1-cyclopropylethoxy)-7-(1-methyl-1H-pyrazol-4-yl)quinazolin-4-yl)benzo[d]thiazol-6-amine]	–	–
≤ 0.01	0.0101 to 0.05	0.0101 to 0.05	CN(C)C1(COc2cc(-c3cnn(C)c3)cc3ncnc(Nc4ccc5ncsc5c4)c23)COC1 [Example 187, N-(5-((3-(dimethylamino)oxetan-3-yl)methoxy)-7-(1-methyl-1H-pyrazol-4-yl)quinazolin-4-yl)benzo[d]thiazol-6-amine]	–	–
≤ 0.01	0.0101 to 0.05	0.0101 to 0.05	CN1CCC(Oc2cc(-c3cn(C)n(C(F)F)c3=O)cc3ncnc(Nc4ccc5ncsc5c4)c23)CC1 [Example A17, 4-(4-(benzo[d]thiazol-6-ylamino)-5-((1-methylpiperidin-4-yl)oxy)quinazolin-7-yl)-2-(difluoromethyl)-1-methyl-1,2-dihydro-3H-pyrazol-3-one]	–	–
≤ 0.01	≤ 0.01	≤ 0.01	C[C@H](CO)Oc1cc(-c2cnn(C)c2)cc2ncnc(Nc3ccc4ncsc4c3F)c12 (single isomer, unassigned) [Example 289]	–	–
≤ 0.01	0.0101 to 0.05	≤ 0.01	COC[C@@H](C)Oc1cc(N2CCN(CCO)CC2)cc2ncnc(Nc3ccc4ncsc4c3)c12 [Example 196, (R)-2-(4-(4-(benzo[d]thiazol-6-ylamino)-5-((1-methoxypropan-2-yl)oxy)quinazolin-7-yl)piperazin-1-yl)ethan-1-ol]	–	–
≤ 0.01	≤ 0.01	≤ 0.01	Cn1cc(-c2cc(OC3CC4(COC4)C3)c3c(Nc4ccc5ncsc5c4)ncnc3c2)cn1 [Example 38, N-(5-((2-oxaspiro[3.3]heptan-6-yl)oxy)-7-(1-methyl-1H-pyrazol-4-yl)quinazolin-4-yl)benzo[d]thiazol-6-amine]	–	–
≤ 0.01	≤ 0.01	≤ 0.01	Cn1cc(-c2cc(OC3CCOCC3)c3c(Nc4ccc5ncsc5c4)ncnc3c2)cn1 [Example 15, N-(7-(1-methyl-1H-pyrazol-4-yl)-5-((tetrahydro-2H-pyran-4-yl)oxy)quinazolin-4-yl)benzo[d]thiazol-6-amine]	–	–
≤ 0.01	≤ 0.01	≤ 0.01	C[C@H](CN(C)C)Oc1cc(N2CC[C@@H](C(C)(C)O)C2)cc2ncnc(Nc3ccc4ncsc4c3)c12 [Example 182, 2-((R)-1-(4-(benzo[d]thiazol-6-ylamino)-5-(((R)-1-(dimethylamino)propan-2-yl)oxy)quinazolin-7-yl)pyrrolidin-3-yl)propan-2-ol]	–	–
≤ 0.01	0.0101 to 0.05	≤ 0.01	COC[C@@H](C)Oc1cc(N2CCN3CCC[C@@H]3C2)cc2ncnc(Nc3ccc4ncsc4c3)c12 [Example 192, N-(7-((R)-hexahydropyrrolo[1,2-a]pyrazin-2(1H)-yl)-5-(((R)-1-methoxypropan-2-yl)oxy)quinazolin-4-yl)benzo[d]thiazol-6-amine]	–	–
≤ 0.01	≤ 0.01	≤ 0.01	CN1CC[C@H](O)[C@@H](Oc2cc(-c3cnn(C)c3)cc3ncnc(Nc4ccc5ncsc5c4)c23)C1 (single isomer, unassigned) [Example A33]	–	–
0.0101 to 0.05	> 0.0501	0.0101 to 0.05	COC[C@@H](C)Oc1cc(N2CCN(C)C[C@H]2C)cc2ncnc(Nc3ccc4ncsc4c3)c12 (single isomer, unassigned) [Example 212]	–	–
≤ 0.01	≤ 0.01	≤ 0.01	COc1nn(C)cc1-c1cc(OC2CCN(C3COC3)CC2)c2c(Nc3ccc4ncsc4c3)ncnc2c1 [Example 306, N-(7-(3-methoxy-1-methyl-1H-pyrazol-4-yl)-5-((1-(oxetan-3-yl)piperidin-4-yl)oxy)quinazolin-4-yl)benzo[d]thiazol-6-amine]	–	–
≤ 0.01	≤ 0.01	≤ 0.01	COc1cc2ncnc(Nc3ccc4ncsc4c3)c2cc1-c1cnn(C2CCN(C)C[C@H]2F)c1 (single isomer, unassigned) [Example 166]	–	–
≤ 0.01	≤ 0.01	≤ 0.01	COc1nn(C)cc1-c1cc(O[C@H]2COC[C@@H]2O)c2c(Nc3ccc4ncsc4c3)ncnc2c1 (single isomer, unassigned) [Example A48]	–	–

SMILES	IC50 (EGFR (d746-750); [2]) [µM]	IC50 [1] [µM]	IC50 (EGFR L858R; [3]) [µM]	IC50 (EGFR (d746-750)) [µM]	IC50 (EGFR L858R) [µM]
CN1CCC[C@H](Oc2cc(C#CCN3CCOCC3)cc3ncnc(Nc4ccc5ncsc5c4)c23)C1 [Example A25, N-(1,3-benzothiazol-6-yl)-5-{[(3S)-1-methylpiperidin-3-yl]oxy}-7-[3-(morpholin-4-yl)prop-1-yn-1-yl]quinazolin-4-amine]	–	0.0101 to 0.05	–	< 0.01	< 0.01
